Tests used:
[1] = target: ProfilerPro Kinase Selectivity Assay Kit kinases (Homo sapiens, UniProt O00141); format: biochemical; conditions: SGK1; 1 μM compound concentration
Protocol: (§1) Compounds were profiled using a LabChip® EZ Reader II platform and a ProfilerPro Kinase Selectivity Assay Kit (Caliper Lifesciences Inc., Hopkinton, Mass.). Compounds were tested at a concentration of 1 M in duplicate, with mean data reported as percent of control (POC).

[2] = target: ProfilerPro Kinase Selectivity Assay Kit kinases (Homo sapiens, UniProt O14965); format: biochemical; conditions: AURORA A; 1 μM compound concentration
Protocol: as §1

[3] = target: ProfilerPro Kinase Selectivity Assay Kit kinases (Homo sapiens, UniProt O75116); format: biochemical; conditions: ROCK2; 1 μM compound concentration
Protocol: as §1

[4] = target: ProfilerPro Kinase Selectivity Assay Kit kinases (Homo sapiens, UniProt O75582); format: biochemical; conditions: MSK1; 1 μM compound concentration
Protocol: as §1

[5] = target: ProfilerPro Kinase Selectivity Assay Kit kinases (Homo sapiens, UniProt O95819); format: biochemical; conditions: HGK; 1 μM compound concentration
Protocol: as §1

[6] = target: ProfilerPro Kinase Selectivity Assay Kit kinases (Homo sapiens, UniProt P00519); format: biochemical; conditions: ABL; 1 μM compound concentration
Protocol: as §1

[7] = target: ProfilerPro Kinase Selectivity Assay Kit kinases (Homo sapiens, UniProt P04049); format: biochemical; conditions: cRAF; 1 μM compound concentration
Protocol: as §1

[8] = target: ProfilerPro Kinase Selectivity Assay Kit kinases (Homo sapiens, UniProt P06239); format: biochemical; conditions: LCK; 1 μM compound concentration
Protocol: as §1

[9] = target: ProfilerPro Kinase Selectivity Assay Kit kinases (Homo sapiens, UniProt P06241); format: biochemical; conditions: FYN; 1 μM compound concentration
Protocol: as §1

[10] = target: ProfilerPro Kinase Selectivity Assay Kit kinases (Homo sapiens, UniProt P07948); format: biochemical; conditions: LYN; 1 μM compound concentration
Protocol: as §1

[11] = target: ProfilerPro Kinase Selectivity Assay Kit kinases (Homo sapiens, UniProt P08069); format: biochemical; conditions: IGF1R; 1 μM compound concentration
Protocol: as §1

[12] = target: ProfilerPro Kinase Selectivity Assay Kit kinases (Homo sapiens, UniProt P11362); format: biochemical; conditions: FGFR1; 1 μM compound concentration
Protocol: as §1

[13] = target: ProfilerPro Kinase Selectivity Assay Kit kinases (Homo sapiens, UniProt P17612); format: biochemical; conditions: PKA alpha; 1 μM compound concentration
Protocol: as §1

[14] = target: ProfilerPro Kinase Selectivity Assay Kit kinases (Homo sapiens, UniProt P23443); format: biochemical; conditions: p70S6K; 1 μM compound concentration
Protocol: as §1

[15] = target: ProfilerPro Kinase Selectivity Assay Kit kinases (Homo sapiens, UniProt P27361); format: biochemical; conditions: ERK1; 1 μM compound concentration
Protocol: as §1

[16] = target: ProfilerPro Kinase Selectivity Assay Kit kinases (Homo sapiens, UniProt P28482); format: biochemical; conditions: ERK2; 1 μM compound concentration
Protocol: as §1

[17] = target: ProfilerPro Kinase Selectivity Assay Kit kinases (Homo sapiens, UniProt P35968); format: biochemical; conditions: KDR; 1 μM compound concentration
Protocol: as §1

[18] = target: ProfilerPro Kinase Selectivity Assay Kit kinases (Homo sapiens, UniProt P36888); format: biochemical; conditions: FLT3; 1 μM compound concentration
Protocol: as §1

[19] = target: ProfilerPro Kinase Selectivity Assay Kit kinases (Homo sapiens, UniProt P43405); format: biochemical; conditions: SYK; 1 μM compound concentration
Protocol: as §1

[20] = target: ProfilerPro Kinase Selectivity Assay Kit kinases (Homo sapiens, UniProt P48730); format: biochemical; conditions: CK1 delta; 1 μM compound concentration
Protocol: as §1

[21] = target: ProfilerPro Kinase Selectivity Assay Kit kinases (Homo sapiens, UniProt P49137); format: biochemical; conditions: MAPKAPK2; 1 μM compound concentration
Protocol: as §1

[22] = target: ProfilerPro Kinase Selectivity Assay Kit kinases (Homo sapiens, UniProt Q06187); format: biochemical; conditions: BTK; 1 μM compound concentration
Protocol: as §1

[23] = target: ProfilerPro Kinase Selectivity Assay Kit kinases (Homo sapiens, UniProt Q13177); format: biochemical; conditions: PAK2; 1 μM compound concentration
Protocol: as §1

[24] = target: ProfilerPro Kinase Selectivity Assay Kit kinases (Homo sapiens, UniProt Q13188); format: biochemical; conditions: MST2; 1 μM compound concentration
Protocol: as §1

[25] = target: ProfilerPro Kinase Selectivity Assay Kit kinases (Homo sapiens, UniProt Q13627); format: biochemical; conditions: DYRK1a; 1 μM compound concentration
Protocol: as §1

[26] = target: ProfilerPro Kinase Selectivity Assay Kit kinases (Homo sapiens, UniProt Q13976); format: biochemical; conditions: PKGa2; 1 μM compound concentration
Protocol: as §1

[27] = target: ProfilerPro Kinase Selectivity Assay Kit kinases (Homo sapiens, UniProt Q16539); format: biochemical; conditions: p38 alpha; 1 μM compound concentration
Protocol: as §1

[28] = target: ProfilerPro Kinase Selectivity Assay Kit kinases (Homo sapiens, UniProt Q16566); format: biochemical; conditions: CAMK4; 1 μM compound concentration
Protocol: as §1

[29] = target: ProfilerPro Kinase Selectivity Assay Kit kinases (Homo sapiens, UniProt Q8IW41); format: biochemical; conditions: PRAK; 1 μM compound concentration
Protocol: as §1

[30] = tested on: ProfilerPro Kinase Selectivity Assay Kit kinases; format: biochemical; conditions: 1 μM compound concentration
Protocol: as §1

[31] = target: human mutant B-raf (HuBraf V600E) (Homo sapiens (Human), UniProt P15056, V600E); conditions: at 10 μM compound concentration; POC = 100 − percent inhibition
human mutant B-raf (HuBraf V600E), sequence (P15056 whole entry V600E): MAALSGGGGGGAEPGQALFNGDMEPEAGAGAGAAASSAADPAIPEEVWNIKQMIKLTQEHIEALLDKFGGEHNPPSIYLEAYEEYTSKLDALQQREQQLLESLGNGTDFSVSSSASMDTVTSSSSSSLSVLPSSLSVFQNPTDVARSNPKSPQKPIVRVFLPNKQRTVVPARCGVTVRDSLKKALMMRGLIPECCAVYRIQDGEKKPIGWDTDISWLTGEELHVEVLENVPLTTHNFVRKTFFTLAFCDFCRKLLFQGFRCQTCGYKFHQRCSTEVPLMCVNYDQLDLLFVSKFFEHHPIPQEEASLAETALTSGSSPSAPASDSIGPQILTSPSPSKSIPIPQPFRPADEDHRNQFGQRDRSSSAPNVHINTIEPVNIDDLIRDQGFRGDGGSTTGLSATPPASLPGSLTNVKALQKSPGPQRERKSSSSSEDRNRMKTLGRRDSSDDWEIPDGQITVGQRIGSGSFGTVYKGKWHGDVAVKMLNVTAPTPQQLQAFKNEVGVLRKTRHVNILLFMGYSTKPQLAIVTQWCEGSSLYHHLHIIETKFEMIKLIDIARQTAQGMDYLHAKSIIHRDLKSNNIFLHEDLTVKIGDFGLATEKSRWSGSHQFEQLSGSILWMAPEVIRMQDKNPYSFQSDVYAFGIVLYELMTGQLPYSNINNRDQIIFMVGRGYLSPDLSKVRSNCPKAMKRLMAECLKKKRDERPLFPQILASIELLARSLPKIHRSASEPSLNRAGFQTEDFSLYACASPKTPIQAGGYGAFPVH

ProfilerPro Kinase Selectivity Assay Kit kinases (Homo sapiens, UniProt P36888), sequence (P36888 27-993 limits assumed): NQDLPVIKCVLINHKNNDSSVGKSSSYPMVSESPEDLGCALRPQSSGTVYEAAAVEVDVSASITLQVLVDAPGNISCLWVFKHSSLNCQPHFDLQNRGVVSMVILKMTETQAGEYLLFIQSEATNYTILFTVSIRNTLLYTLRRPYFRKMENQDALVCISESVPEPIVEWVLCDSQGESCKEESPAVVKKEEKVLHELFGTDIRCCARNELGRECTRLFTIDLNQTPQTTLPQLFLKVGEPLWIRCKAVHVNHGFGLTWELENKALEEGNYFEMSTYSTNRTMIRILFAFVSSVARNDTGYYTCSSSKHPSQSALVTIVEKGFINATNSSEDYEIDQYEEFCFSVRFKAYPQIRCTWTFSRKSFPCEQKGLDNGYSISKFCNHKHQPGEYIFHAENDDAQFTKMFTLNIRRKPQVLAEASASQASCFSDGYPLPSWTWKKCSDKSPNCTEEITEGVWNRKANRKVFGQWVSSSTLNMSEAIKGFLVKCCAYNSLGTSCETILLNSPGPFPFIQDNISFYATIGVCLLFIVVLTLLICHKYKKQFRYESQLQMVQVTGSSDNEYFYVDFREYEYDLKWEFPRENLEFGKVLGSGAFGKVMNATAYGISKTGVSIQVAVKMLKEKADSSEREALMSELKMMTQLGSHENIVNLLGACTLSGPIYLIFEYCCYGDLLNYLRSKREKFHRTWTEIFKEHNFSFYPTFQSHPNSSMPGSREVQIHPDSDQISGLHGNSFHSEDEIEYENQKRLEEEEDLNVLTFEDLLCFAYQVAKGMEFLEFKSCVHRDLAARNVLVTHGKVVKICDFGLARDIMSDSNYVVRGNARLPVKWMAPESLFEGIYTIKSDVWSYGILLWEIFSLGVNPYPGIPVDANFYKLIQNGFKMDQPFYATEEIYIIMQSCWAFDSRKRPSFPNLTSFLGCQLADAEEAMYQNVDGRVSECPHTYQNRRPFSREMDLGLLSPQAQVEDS
ProfilerPro Kinase Selectivity Assay Kit kinases (Homo sapiens, UniProt P27361), sequence (P27361 2-379 limits assumed): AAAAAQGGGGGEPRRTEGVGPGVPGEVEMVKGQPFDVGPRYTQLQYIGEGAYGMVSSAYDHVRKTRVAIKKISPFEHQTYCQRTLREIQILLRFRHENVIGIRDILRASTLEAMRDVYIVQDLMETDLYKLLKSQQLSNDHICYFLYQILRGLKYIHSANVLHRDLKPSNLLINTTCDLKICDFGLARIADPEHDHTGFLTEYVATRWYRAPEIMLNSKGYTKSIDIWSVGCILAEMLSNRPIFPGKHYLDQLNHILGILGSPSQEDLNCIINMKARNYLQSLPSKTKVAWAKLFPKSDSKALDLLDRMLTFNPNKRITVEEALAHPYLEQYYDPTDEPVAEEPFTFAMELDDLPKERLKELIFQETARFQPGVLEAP
ProfilerPro Kinase Selectivity Assay Kit kinases (Homo sapiens, UniProt Q06187), sequence (Q06187 2-659 limits assumed): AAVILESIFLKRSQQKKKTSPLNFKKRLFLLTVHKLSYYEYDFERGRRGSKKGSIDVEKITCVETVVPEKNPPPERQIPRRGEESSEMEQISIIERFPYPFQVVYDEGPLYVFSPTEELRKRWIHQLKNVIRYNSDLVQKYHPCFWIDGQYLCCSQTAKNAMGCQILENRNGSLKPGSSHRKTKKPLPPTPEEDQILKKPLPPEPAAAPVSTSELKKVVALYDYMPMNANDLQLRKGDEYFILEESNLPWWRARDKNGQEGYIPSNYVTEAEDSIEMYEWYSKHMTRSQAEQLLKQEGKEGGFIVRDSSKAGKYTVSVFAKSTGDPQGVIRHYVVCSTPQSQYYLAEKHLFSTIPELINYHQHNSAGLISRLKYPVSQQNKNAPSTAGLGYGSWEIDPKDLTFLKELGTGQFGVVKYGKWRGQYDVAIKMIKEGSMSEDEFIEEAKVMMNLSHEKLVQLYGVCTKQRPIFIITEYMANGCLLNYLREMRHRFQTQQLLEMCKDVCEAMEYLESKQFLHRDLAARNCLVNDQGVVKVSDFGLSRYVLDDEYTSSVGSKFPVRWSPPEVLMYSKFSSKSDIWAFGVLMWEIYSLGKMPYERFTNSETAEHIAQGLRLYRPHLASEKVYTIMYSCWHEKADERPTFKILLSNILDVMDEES
ProfilerPro Kinase Selectivity Assay Kit kinases (Homo sapiens, UniProt P11362), sequence (P11362 22-822 limits assumed): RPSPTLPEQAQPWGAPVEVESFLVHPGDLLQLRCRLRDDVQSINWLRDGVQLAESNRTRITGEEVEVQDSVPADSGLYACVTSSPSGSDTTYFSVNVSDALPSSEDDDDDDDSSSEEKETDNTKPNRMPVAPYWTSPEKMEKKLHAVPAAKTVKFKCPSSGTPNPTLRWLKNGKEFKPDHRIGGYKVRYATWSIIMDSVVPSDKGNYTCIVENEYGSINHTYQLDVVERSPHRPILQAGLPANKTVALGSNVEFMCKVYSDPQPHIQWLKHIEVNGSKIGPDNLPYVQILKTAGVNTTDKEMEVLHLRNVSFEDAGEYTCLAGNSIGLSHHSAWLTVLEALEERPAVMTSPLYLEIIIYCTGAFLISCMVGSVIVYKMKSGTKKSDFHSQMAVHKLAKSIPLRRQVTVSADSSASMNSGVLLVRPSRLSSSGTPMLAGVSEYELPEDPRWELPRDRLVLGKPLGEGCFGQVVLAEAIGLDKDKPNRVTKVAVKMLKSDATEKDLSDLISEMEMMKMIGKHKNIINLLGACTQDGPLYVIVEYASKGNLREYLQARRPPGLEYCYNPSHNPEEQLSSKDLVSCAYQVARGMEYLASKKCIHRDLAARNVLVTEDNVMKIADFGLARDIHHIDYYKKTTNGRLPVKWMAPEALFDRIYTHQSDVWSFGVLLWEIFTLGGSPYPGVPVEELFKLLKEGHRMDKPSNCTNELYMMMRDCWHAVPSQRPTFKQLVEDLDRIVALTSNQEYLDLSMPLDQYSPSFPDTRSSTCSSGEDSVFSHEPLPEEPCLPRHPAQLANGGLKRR
ProfilerPro Kinase Selectivity Assay Kit kinases (Homo sapiens, UniProt O95819), sequence (O95819 2-1239 limits assumed): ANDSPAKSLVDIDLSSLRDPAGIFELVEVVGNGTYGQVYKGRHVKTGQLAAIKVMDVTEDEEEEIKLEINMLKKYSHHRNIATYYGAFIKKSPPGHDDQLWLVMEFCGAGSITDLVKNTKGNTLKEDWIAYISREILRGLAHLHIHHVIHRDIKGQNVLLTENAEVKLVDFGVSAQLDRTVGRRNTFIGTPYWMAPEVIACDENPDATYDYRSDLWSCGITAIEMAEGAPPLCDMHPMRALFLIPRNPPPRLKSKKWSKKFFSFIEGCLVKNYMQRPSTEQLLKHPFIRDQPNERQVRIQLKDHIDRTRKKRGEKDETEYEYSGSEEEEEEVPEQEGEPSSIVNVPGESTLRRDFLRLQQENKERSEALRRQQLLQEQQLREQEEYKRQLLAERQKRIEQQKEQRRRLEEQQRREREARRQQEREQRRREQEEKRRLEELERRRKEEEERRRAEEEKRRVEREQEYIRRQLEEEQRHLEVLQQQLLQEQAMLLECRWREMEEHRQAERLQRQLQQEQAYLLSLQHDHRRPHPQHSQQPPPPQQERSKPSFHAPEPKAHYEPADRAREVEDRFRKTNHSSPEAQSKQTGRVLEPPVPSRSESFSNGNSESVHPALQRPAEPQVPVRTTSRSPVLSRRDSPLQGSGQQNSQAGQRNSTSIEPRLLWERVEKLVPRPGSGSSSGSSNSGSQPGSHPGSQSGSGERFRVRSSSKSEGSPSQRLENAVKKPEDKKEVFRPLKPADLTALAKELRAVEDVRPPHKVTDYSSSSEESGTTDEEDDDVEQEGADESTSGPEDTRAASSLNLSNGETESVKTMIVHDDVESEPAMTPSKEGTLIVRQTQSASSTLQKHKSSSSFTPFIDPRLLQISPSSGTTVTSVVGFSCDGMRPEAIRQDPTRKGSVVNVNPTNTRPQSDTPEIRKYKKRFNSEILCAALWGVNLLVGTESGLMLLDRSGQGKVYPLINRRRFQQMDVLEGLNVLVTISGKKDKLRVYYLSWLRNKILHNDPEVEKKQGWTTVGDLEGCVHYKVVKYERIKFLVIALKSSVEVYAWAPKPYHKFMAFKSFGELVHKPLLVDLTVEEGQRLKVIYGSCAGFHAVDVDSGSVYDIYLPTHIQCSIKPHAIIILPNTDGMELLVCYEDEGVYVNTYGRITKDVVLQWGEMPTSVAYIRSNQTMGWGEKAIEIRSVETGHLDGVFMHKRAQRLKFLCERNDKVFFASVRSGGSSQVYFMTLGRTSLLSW

Row | Compound | POC (Percent of control) SGK1 [1] [POC] | POC (Percent of control) AURORA A [2] [POC] | POC (Percent of control) ROCK2 [3] [POC] | POC (Percent of control) MSK1 [4] [POC] | POC (Percent of control) HGK [5] [POC] | POC (Percent of control) ABL [6] [POC] | POC (Percent of control) cRAF [7] [POC] | POC (Percent of control) LCK [8] [POC] | POC (Percent of control) FYN [9] [POC] | POC (Percent of control) LYN [10] [POC] | POC (Percent of control) IGF1R [11] [POC] | POC (Percent of control) FGFR1 [12] [POC] | POC (Percent of control) PKA alpha [13] [POC] | POC (Percent of control) p70S6K [14] [POC] | POC (Percent of control) ERK1 [15] [POC] | POC (Percent of control) ERK2 [16] [POC] | POC (Percent of control) KDR [17] [POC] | POC (Percent of control) FLT3 [18] [POC] | POC (Percent of control) SYK [19] [POC] | POC (Percent of control) CK1 delta [20] [POC] | also measured
1 | Cc1nc(-c2cccnc2Nc2cccc3[nH]ncc23)c2nc[nH]c2n1 [Example 57, N-(3-(2-methyl-9H-purin-6-yl)pyridin-2-yl)-1H-indazol-4-amine] | 92 | 99 | 95 | 101 | 93 | 94 | 100 | 96 | 103 | 95 | 77 | 95 | 100 | 94 | 100 | 97 | 90 | 92 | 100 | 55 | POC (Percent of control) MAPKAPK2 [21]: 99 POC; POC (Percent of control) BTK [22]: 98 POC; POC (Percent of control) PAK2 [23]: 95 POC; POC (Percent of control) MST2 [24]: 95 POC; POC (Percent of control) DYRK1a [25]: 91 POC; POC (Percent of control) PKGa2 [26]: 98 POC; POC (Percent of control) p38 alpha [27]: 100 POC; POC (Percent of control) CAMK4 [28]: 93 POC; POC (Percent of control) PRAK [29]: 100 POC; POC (Percent of control) AMPK [30]: 92 POC; POC (Percent of control) CAMK2 [30]: 109 POC; POC (Percent of control) PKC beta2 [30]: 97 POC; POC (Percent of control) TAK1 [30]: 97 POC; Mutant B-raf HTRF Assay POC Mean n = 2 [31]: 87% of Control (POC)
2 | c1cnc(Nc2cccc3[nH]ncc23)c(-c2ncnc3[nH]cnc23)c1 [Example 18, N-(3-(9H-Purin-6-yl)Pyridin-2-yl)-1H-Indazol-4-Amine] | 97 | 84 | 98 | 97 | 92 | 77 | 1 | 72 | 86 | 81 | 64 | 62 | 97 | 98 | 104 | 96 | 89 | 106 | 63 | 35 | POC (Percent of control) MAPKAPK2 [21]: 93 POC; POC (Percent of control) BTK [22]: 99 POC; POC (Percent of control) PAK2 [23]: 96 POC; POC (Percent of control) MST2 [24]: 96 POC; POC (Percent of control) DYRK1a [25]: 59 POC; POC (Percent of control) PKGa2 [26]: 90 POC; POC (Percent of control) p38 alpha [27]: 86 POC; POC (Percent of control) CAMK4 [28]: 71 POC; POC (Percent of control) PRAK [29]: 95 POC; POC (Percent of control) AMPK [30]: 83 POC; POC (Percent of control) CAMK2 [30]: 90 POC; POC (Percent of control) PKC beta2 [30]: 91 POC; POC (Percent of control) TAK1 [30]: 97 POC; Mutant B-raf HTRF Assay POC Mean n = 2 [31]: 3% of Control (POC)
3 | Cc1nc(N)nc(-c2cccnc2Nc2cccc(O)c2)n1 [Example 23, 3-(3-(4-Amino-6-Methyl-1,3,5-Triazin-2-yl)Pyridin-2-Ylamino)Phenol] | 102 | 112 | 101 | 112 | 99 | 97 | 108 | 97 | 96 | 101 | 101 | 99 | 99 | 112 | 104 | 103 | 105 | 106 | 110 | 70 | POC (Percent of control) MAPKAPK2 [21]: 99 POC; POC (Percent of control) BTK [22]: 100 POC; POC (Percent of control) PAK2 [23]: 96 POC; POC (Percent of control) MST2 [24]: 101 POC; POC (Percent of control) DYRK1a [25]: 93 POC; POC (Percent of control) PKGa2 [26]: 87 POC; POC (Percent of control) p38 alpha [27]: 104 POC; POC (Percent of control) CAMK4 [28]: 98 POC; POC (Percent of control) PRAK [29]: 97 POC; POC (Percent of control) AMPK [30]: 98 POC; POC (Percent of control) CAMK2 [30]: 108 POC; POC (Percent of control) PKC beta2 [30]: 92 POC; POC (Percent of control) TAK1 [30]: 102 POC; Mutant B-raf HTRF Assay POC Mean n = 2 [31]: 100% of Control (POC)

From patent US8772480B2, “Inhibitors of PI3 kinase and/or mTOR” (priority 2009, dated 2014)
